Columns and labels:
[1] = target: T1, PRMT5 (Homo sapiens, UniProt O14744); assay: PRMT5 IC50 assay in the presence of SAM as cofactor; type: biochemical
T1 construct: purchased Viva (custom protein)
Summary of the method: (§1)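 Values reflect IC50 (μM) on human PRMT5 under three cofactor states. Selectivity is derived as the quotient of SAM-state Ki over MTA-state Ki, with each Ki obtained from its IC50.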

[2] = target: T1, PRMT5; assay: PRMT5 IC50 assay with no cofactor; type: biochemical
Summary of the method: as §1

[3] = target: T1, PRMT5; assay: PRMT5 IC50 assay in the presence of MTA as cofactor; type: biochemical; conditions: for IC50: PRMT5, MTA as cofactor
Summary of the method: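 Ki conversion: SAM arm, Ki=IC50/1.5; MTA arm, Ki=IC50/13.5. No-cofactor arm reported as IC50 only. Selectivity expressed as Ki(SAM)/Ki(MTA).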

[4] = test system: HAP1 MTAP-intact; assay: SDMA in-cell western assay, HAP1 MTAP-intact cell line; type: cell-based; conditions: Homo sapiens
Description: Table 1a also indicates IC50 values in an MTAP-isogenic cell line pair for exemplary compounds in an SDMA in-cell western assay (columns 7-8). HAP1 MTAP-intact is a cell line in which endogenous levels of MTAP are expressed, and HAP1 MTAP-deleted is an MTAP-null cell line. […] Compounds with a ratio in the SDMA in-cell western assay of equal to or greater than 3 fold are considered MTAP-selective.

[5] = test system: HAP1 MTAP-deleted; assay: SDMA in-cell western assay, HAP1 MTAP-deleted cell line; type: cell-based; conditions: for IC50: Homo sapiens, HAP1 MTAP-deleted cell line; for MTAP Intact/Deleted Ratio: IC50 ratio HAP1 MTAP-intact / HAP1 MTAP-deleted
Description: Table 1a also indicates IC50 values in an MTAP-isogenic cell line pair for exemplary compounds in an SDMA in-cell western assay (columns 7-8). HAP1 MTAP-intact is a cell line in which endogenous levels of MTAP are expressed, and HAP1 MTAP-deleted is an MTAP-null cell line.

[6] = ratio between Ki in the presence of SAM and Ki in the presence of MTA
[7] = ratio between the Ki in the presence of SAM and the Ki in the presence of MTA

T1 sequence (O14744 whole entry): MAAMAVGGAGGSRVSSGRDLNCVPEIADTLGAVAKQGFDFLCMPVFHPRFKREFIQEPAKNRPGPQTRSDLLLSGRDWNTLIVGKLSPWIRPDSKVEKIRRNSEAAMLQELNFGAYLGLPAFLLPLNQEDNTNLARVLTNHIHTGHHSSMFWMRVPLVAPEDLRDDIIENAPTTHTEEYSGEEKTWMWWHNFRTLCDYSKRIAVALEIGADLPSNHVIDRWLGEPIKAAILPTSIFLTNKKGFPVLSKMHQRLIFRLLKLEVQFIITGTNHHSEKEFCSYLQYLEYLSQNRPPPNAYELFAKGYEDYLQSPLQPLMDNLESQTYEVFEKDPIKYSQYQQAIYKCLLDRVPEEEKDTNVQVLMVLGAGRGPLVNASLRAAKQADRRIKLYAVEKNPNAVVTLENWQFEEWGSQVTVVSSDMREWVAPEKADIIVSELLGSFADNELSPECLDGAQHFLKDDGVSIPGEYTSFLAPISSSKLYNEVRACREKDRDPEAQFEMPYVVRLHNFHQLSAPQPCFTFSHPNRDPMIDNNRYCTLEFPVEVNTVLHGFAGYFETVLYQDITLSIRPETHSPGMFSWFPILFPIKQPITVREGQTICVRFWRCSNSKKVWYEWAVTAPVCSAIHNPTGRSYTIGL
T1 sequence (Q9BQA1 whole entry partner): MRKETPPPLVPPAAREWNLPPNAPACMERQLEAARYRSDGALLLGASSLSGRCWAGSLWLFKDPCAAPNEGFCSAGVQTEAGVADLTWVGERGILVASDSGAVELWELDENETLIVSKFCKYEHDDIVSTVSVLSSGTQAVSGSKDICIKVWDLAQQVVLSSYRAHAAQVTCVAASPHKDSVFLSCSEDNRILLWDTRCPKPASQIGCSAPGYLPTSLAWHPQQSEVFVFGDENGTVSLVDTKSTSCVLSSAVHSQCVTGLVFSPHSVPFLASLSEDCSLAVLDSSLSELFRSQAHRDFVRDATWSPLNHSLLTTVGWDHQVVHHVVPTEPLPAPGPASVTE

## Cc1ncoc1COc1ccc2c(c1Br)CCN(C[C@@H](O)CNC(=O)c1ccnc(NC3CCCC3)c1)C2 [Compound 350, (S)—N-(3-(5-bromo-6-((4-methyloxazol-5-yl)methoxy)-3,4-dihydroisoquinolin-2(1H)-yl)-2-hydroxypropyl)-2-(cyclopentylamino)isonicotinamide]
[1]
  IC50: 50 to 500 nM
[2]; read-out: No Co-factor IC50
  IC50: ≥ 5000 nM
[3]
  IC50: 50 to 500 nM
[3]; [6]
  SAM/MTA Ratio: A (a Ki ratio greater than or equal to 10 fold between the Ki in the presence of SAM and the Ki in the presence of MTA)
[4]
  IC50: ≥ 10000 nM
[5]
  IC50: ≥ 10000 nM
  MTAP Intact/Deleted Ratio: C* (an IC50 ratio of less than 3 fold between the IC50 in the HAP1 MTAP-intact cell line and the HAP1 MTAP-deleted cell line)

## CCC(=O)N1CC(Nc2cc(C(=O)NC[C@H](O)CN3CCc4c(ccc(OCc5cnco5)c4C)C3)ccn2)C1 [Compound 495, (S)—N-(2-hydroxy-3-(5-methyl-6-(oxazol-5-ylmethoxy)-3,4-dihydroisoquinolin-2(1H)-yl)propyl)-2-((1-propionylazetidin-3-yl)amino)isonicotinamide]
[1]
  IC50: 50 to 500 nM
[2]
  IC50: 500 to 5000 nM
[3]
  IC50: 50 to 500 nM
[3]; [7]
  SAM/MTA Ratio: A (a Ki ratio greater than or equal to 10 fold between the Ki in the presence of SAM and the Ki in the presence of MTA)
[4]
  IC50: ≥ 10000 nM
[5]
  IC50: ≥ 10000 nM
  MTAP Intact/Deleted Ratio: C* (an IC50 ratio of less than 3 fold between the IC50 in the HAP1 MTAP-intact cell line and the HAP1 MTAP-deleted cell line)

## CC(=O)N1CC(Nc2cc(C(=O)NC[C@H](O)CN3CCc4cc(OCc5ocnc5C)ccc4C3)nc(C(C)C)n2)C1 [Compound 568, (S)-6-((1-acetylazetidin-3-yl)amino)-N-(2-hydroxy-3-(6-((4-methyloxazol-5-yl)methoxy)-3,4-dihydroisoquinolin-2(1H)-yl)propyl)-2-isopropylpyrimidine-4-carboxamide]
[1]
  IC50: 50 to 500 nM
[2]
  IC50: 500 to 5000 nM
[3]
  IC50: 50 to 500 nM
[3]; [7]
  SAM/MTA Ratio: A (a Ki ratio greater than or equal to 10 fold between the Ki in the presence of SAM and the Ki in the presence of MTA)
[4]
  IC50: 1000 to 10000 nM
[5]
  IC50: < 1000 nM
  MTAP Intact/Deleted Ratio: C* (an IC50 ratio of less than 3 fold between the IC50 in the HAP1 MTAP-intact cell line and the HAP1 MTAP-deleted cell line)

## CCC(=O)N1CCN(c2cc(C(=O)NC[C@H](O)CN3CCc4cc(OCc5cnco5)ccc4C3)cc(NC3CCC3)n2)CC1 [Compound 397, (S)-2-(cyclobutylamino)-N-(2-hydroxy-3-(6-(oxazol-5-ylmethoxy)-3,4-dihydroisoquinolin-2(1H)-yl)propyl)-6-(4-propionylpiperazin-1-yl)isonicotinamide]
[1]
  IC50: 50 to 500 nM
[2]; read-out: No Co-factor IC50
  IC50: 500 to 5000 nM
[3]
  IC50: 50 to 500 nM
[3]; [6]
  SAM/MTA Ratio: A (a Ki ratio greater than or equal to 10 fold between the Ki in the presence of SAM and the Ki in the presence of MTA)
[4]
  IC50: 1000 to 10000 nM
[5]
  IC50: < 1000 nM
  MTAP Intact/Deleted Ratio: C* (an IC50 ratio of less than 3 fold between the IC50 in the HAP1 MTAP-intact cell line and the HAP1 MTAP-deleted cell line)

## CCCN(C)c1nc(NC2COC2)cc(C(=O)NC[C@H](O)CN2CCc3cc(OCc4ocnc4C)ccc3C2)n1 [Compound 390, N-[(2S)-2-hydroxy-3-{6-[(4-methyl-1,3-oxazol-5-yl)methoxy]-1,2,3,4-tetrahydroisoquinolin-2-yl}propyl]-2-[methyl(propyl)amino]-6-[(oxetan-3-yl)amino]pyrimidine-4-carboxamide]
[1]
  IC50: 50 to 500 nM
[2]; read-out: No Co-factor IC50
  IC50: 500 to 5000 nM
[3]
  IC50: 50 to 500 nM
[3]; [6]
  SAM/MTA Ratio: A (a Ki ratio greater than or equal to 10 fold between the Ki in the presence of SAM and the Ki in the presence of MTA)
[4]
  IC50: < 1000 nM
[5]
  IC50: < 1000 nM
  MTAP Intact/Deleted Ratio: C* (an IC50 ratio of less than 3 fold between the IC50 in the HAP1 MTAP-intact cell line and the HAP1 MTAP-deleted cell line)

## Cc1ncoc1COc1ccc2c(c1C)CCN(C[C@@H](O)CNC(=O)c1cc(NC3CCC3)nc(N3CCN(C(=O)C4CC4)CC3)c1)C2 [Compound 411, 2-(cyclobutylamino)-6-(4-cvclopropanecarbonylpiperazin-1-yl)-N-[(2S)-2-hydroxy-3-{5-methyl-6-[(4-methyl-1,3-oxazol-5-yl)methoxy]1,2,3,4-tetrahydroisoquinolin-2-yl}propyl]pyridine-4-carboxamide]
[1]
  IC50: 50 to 500 nM
[2]; read-out: No Co-factor IC50
  IC50: 500 to 5000 nM
[3]
  IC50: 50 to 500 nM
[3]; [6]
  SAM/MTA Ratio: A (a Ki ratio greater than or equal to 10 fold between the Ki in the presence of SAM and the Ki in the presence of MTA)
[4]
  IC50: ≥ 10000 nM
[5]
  IC50: < 1000 nM
  MTAP Intact/Deleted Ratio: A* (an IC50 ratio greater than or equal to 10 fold between the IC50 in the HAP1 MTAP-intact cell line and the HAP1 MTAP-deleted cell line)

## COc1cnc(NC2CCC2)cc1C(=O)NC[C@H](O)CN1CCc2cc(OCc3ocnc3C)ccc2C1 [Compound 602]
[1]
  IC50: 50 to 500 nM
[2]
  IC50: 500 to 5000 nM
[3]
  IC50: 50 to 500 nM
[3]; [7]
  SAM/MTA Ratio: A (a Ki ratio greater than or equal to 10 fold between the Ki in the presence of SAM and the Ki in the presence of MTA)
[4]
  IC50: 1000 to 10000 nM
[5]
  IC50: 1000 to 10000 nM
  MTAP Intact/Deleted Ratio: C* (an IC50 ratio of less than 3 fold between the IC50 in the HAP1 MTAP-intact cell line and the HAP1 MTAP-deleted cell line)

## O=C(NC[C@H](O)CN1CCc2cc(OCc3cnco3)ccc2C1)c1ccnc(NC2CCCC2)c1 [Compound 407, (S)-2-(cxclopentylamino)-N-(2-hydroxy-3-(6-(oxazol-5-ylmethoxy)-3N-dihydroisoquinolin-2(1H)-yl)propyl)isonicotinamide]
[1]
  IC50: 50 to 500 nM
[2]; read-out: No Co-factor IC50
  IC50: ≥ 5000 nM
[3]
  IC50: 50 to 500 nM
[3]; [6]
  SAM/MTA Ratio: A (a Ki ratio greater than or equal to 10 fold between the Ki in the presence of SAM and the Ki in the presence of MTA)
[4]
  IC50: < 1000 nM
[5]
  IC50: < 1000 nM
  MTAP Intact/Deleted Ratio: B* (an IC50 ratio greater than or equal to 3 fold but lower than 10 fold between the IC50 in the HAP1 MTAP-intact cell line and the HAP1 MTAP-deleted cell line)

## CCN(C)c1cc(C(=O)NC[C@H](O)CN2CCc3cc(OCc4cnco4)ccc3C2)cc(NC2CCC2)n1 [Compound 438, (S)-2-(cyclobutylamino)-6-(ethyl(methyl)amino)-N-(2-hydroxy-3-(6-(oxazol-5-ylmethoxy)-3,4-dihydroisoquinolin-2(1H)-yl)propyl)isonicotinamide]
[1]
  IC50: 500 to 5000 nM
[2]
  IC50: ≥ 5000 nM
[3]
  IC50: 50 to 500 nM
[3]; [7]
  SAM/MTA Ratio: A (a Ki ratio greater than or equal to 10 fold between the Ki in the presence of SAM and the Ki in the presence of MTA)
[4]
  IC50: 1000 to 10000 nM
[5]
  IC50: 1000 to 10000 nM
  MTAP Intact/Deleted Ratio: C* (an IC50 ratio of less than 3 fold between the IC50 in the HAP1 MTAP-intact cell line and the HAP1 MTAP-deleted cell line)

## Cc1ncoc1COc1ccc2c(c1)CCN(C[C@@H](O)CNC(=O)c1cccc(NC3COC3)c1)C2 [Compound 262, (S)—N-(2-hydroxy-3-(6-((4-methyloxazol-5-yl)methoxy)-3N-dihydroisoquinolin-2(1H)-yl)propyl)-3-(oxetan-3-ylamino)benzamide]
[1]
  IC50: 500 to 5000 nM
[2]; read-out: No Co-factor IC50
  IC50: ≥ 5000 nM
[3]
  IC50: 50 to 500 nM
[3]; [6]
  SAM/MTA Ratio: A (a Ki ratio greater than or equal to 10 fold between the Ki in the presence of SAM and the Ki in the presence of MTA)
[4]
  IC50: 1000 to 10000 nM
[5]
  IC50: 1000 to 10000 nM
  MTAP Intact/Deleted Ratio: C* (an IC50 ratio of less than 3 fold between the IC50 in the HAP1 MTAP-intact cell line and the HAP1 MTAP-deleted cell line)

## CC(C)(C)N1CCN(c2cc(C(=O)NC[C@H](O)CN3CCc4cc(OCc5cnco5)ccc4C3)cc(NC3CCC3)n2)CC1 [Compound 306, (S)-2-(4-(tert-butyl)piperazin-1-yl)-6-(cyclobutylamino)-N-(2-hydroxy-3-(6-(oxazol-5-ylmethoxy)-3N-dihydroisoquinolin-2(1H)-yl)propyl)isonicotinamide]
[1]
  IC50: 50 to 500 nM
[2]; read-out: No Co-factor IC50
  IC50: 500 to 5000 nM
[3]
  IC50: 50 to 500 nM
[3]; [6]
  SAM/MTA Ratio: A (a Ki ratio greater than or equal to 10 fold between the Ki in the presence of SAM and the Ki in the presence of MTA)
[4]
  IC50: 1000 to 10000 nM
[5]
  IC50: ≥ 10000 nM
  MTAP Intact/Deleted Ratio: C* (an IC50 ratio of less than 3 fold between the IC50 in the HAP1 MTAP-intact cell line and the HAP1 MTAP-deleted cell line)

## Cc1ncoc1COc1ccc2c(c1)CCN(C[C@@H](O)CNC(=O)c1cc(NC3CCC3)nc(N(C)C3CCC3)c1)C2 [Compound 635]
[1]
  IC50: 50 to 500 nM
[2]; read-out: No Co-factor IC50
  IC50: ≥ 5000 nM
[3]
  IC50: 50 to 500 nM
[3]; [6]
  SAM/MTA Ratio: A (a Ki ratio greater than or equal to 10 fold between the Ki in the presence of SAM and the Ki in the presence of MTA)
[4]
  IC50: 1000 to 10000 nM
[5]
  IC50: < 1000 nM
  MTAP Intact/Deleted Ratio: A* (an IC50 ratio greater than or equal to 10 fold between the IC50 in the HAP1 MTAP-intact cell line and the HAP1 MTAP-deleted cell line)
